The numbers were not newly measured in US20090019042A1, “Method Of Screening Compound Regulating The Translation Of Specific mRNA” (Takeda Pharmaceutical Company Limited, priority 2004, published 2009), which cites them from elsewhere.

The target of series [1] is LysC mRNA. The following applies: L-lysine recognised by LysC mRNA.
For series [2], the target named is xpt-pbux mRNA. The settings on record: guanine recognised by xpt-pbux mRNA.

In the case of `NCCCC[C@H](N)C(=O)O` [L-lysine], in series [1], the Kd (as a rule, the constant that tells how readily two partners part at equilibrium) was 1000 nM.

Regarding `Nc1nc2nc[nH]c2c(=O)[nH]1` [guanine], the dissociation constant (Kd) in series [2] is below 5 nM.
